One series deals with B. vulgatus. Briefly: Inhibitor screen in bacteria, B. vulgatus culture. Type of series: cell-based, Bacteroides vulgatus ATCC 8482. The following applies: FIG. 2c, 100 μM inhibitor, 100 μM bile acid pool, 21 h, replicates 1-3. As to the method: Bacterial Culturing. All bacterial strains were cultured at 37° C. in Cullen-Haiser Gut (CHG) media (which consists of brain heart infusion media (Bacto™ BHI, BD) supplemented with 1% BBL vitamin K1-hemin solution (BD), 1% trace minerals solution (ATCC), 1% trace vitamins solution (ATCC), 5% fetal bovine serum (Hyclone), 1 g/L cellubiose, 1 g/L maltose, and 1 g/L fructose) or BHI^+ (Bacto™ BHI, BD, supplemented with 5 mg/L hemin, and 2.5 uL/L Vitamin K1). All strains were grown under anaerobic conditions in a anaerobic chamber (Coy Lab Products Airlock) with a gas mix of 5% hydrogen and 20% carbon dioxide nitrogen. Escherichia coli was grown aerobically at 37° C. in LB medium supplemented with ampicillin to select for the pET21b plasmid.
Inhibitor Screen in Bacteria. Bacterial cultures were diluted to OD600 of 0.1 in 4 mL BHI^+, containing 100 μM taurine conjugated bile acid pool 100 μM inhibitors. […] After 21 h, serial dilutions were plated on BHI^+ agar to determine cell viability (CFU/mL). […] The cultures were spun down in a centrifuge at 2,500 g for 5 mins to obtain better separation. The organic layer was then removed and the aqueous layer was extracted again using 2 mL of ethyl acetate.

For a further series, the system named is L. plantarum. Kind of series: Inhibitor screen in bacteria, L. plantarum culture. In kind it is cell-based, Lactobacillus plantarum WCFS1. The settings on record: FIG. 2c, L. plantarum culture; 100 μM inhibitor, 100 μM bile acid pool, 21 h; replicates 1-3.
A further series deals with B. theta cultures. Kind of series: BSH inhibition in growing B. theta cultures, single substrate (GUDCA or TUDCA). In kind it is cell-based, Bacteroides thetaiotaomicron. The following applies: 10 μM inhibitor, 100 μM GUDCA.
The test system of a further series is B. adolescentis BSH. Briefly: Target validation and off-target profiling in B. adolescentis using 7-N3. Type of series: cell-based, Bifidobacterium adolescentis L2-32. The settings on record: decreasing concentrations of 7 for 1 h, then 10 μM 7-N3. As to the method:
Target Validation and Off-target Profiling in B. adolescentis using 7-N3. Pilot studies with 7-N3 were performed using B. adolescentis (Gram positive) and B. theta (Gram negative). We chose to use B. adolescentis due to the stronger total fluorescent signal detected by-in gel fluorescence. […] Cultures were allowed to grow anaerobically at 37° C. for 21 h. 10 μM 7-N3 (10 mM stock in DMSO) or […] DMSO (to control tubes) was then added to the cultures and incubated anaerobically at 37° C. for 1 h. The cultures were centrifuged at 2,500 g at 4° C. for 15 mins. The media was decanted and cells were resuspended in PBS containing 1 mM TCEP and 1 mM PMSF and centrifuged 4,200 rpm at 4° C. for 15 mins. The buffer was decanted and the cells were suspended in 300 μL of fresh buffer and transferred to homogenizing tubes (Precellys lysing kit tough micro-organism lysing VK05 tubes) with ceramic beads. The suspension was then homogenized (5000 speed for 90 s*2, 6500 speed for 60 s) and spun down for 20 min at 15,000 g at 4° C. The supernatant was removed and the concentration of proteins in the lysate was quantified by Bradford assay. The lysates were then subjected to click reaction as per “Click Chemistry for In-gel Fluorescence Imaging” for fluorescence imaging and “Click Chemistry for MS/MS on Bacterial Lysate” for mass spectrophotometer-based quantification and identification.
Cultures were allowed to grow anaerobically at 37° C. for 21 h. Decreasing concentrations of 7 were added to different tubes and the cultures were incubated anaerobically at 37° C. for 1 h. 10 μM 7-N3 was then added to the cultures and incubated anaerobically at 37° C. for an additional hour. The cultures were further processed as per the reported method in “Target Validation and Off-target Profiling in B. adolescentis using 7-N3” and “Click Chemistry for In-gel Fluorescence Imaging”.
Click Chemistry for In-gel Fluorescence Imaging. Click reactions were performed on 25 μL scale. Lysates (normalized to 1.5 mg/mL for both bacterial and mammalian cells) pretreated with 10 μM Compound 7-N3 were incubated with 100 μM fluor 488-alkyne (10 mM stock in DMSO), 100 μM CuBr (5 mM stock in DMSO), and 100 μM Tris[(1-benzyl-1H-1,2,3-triazol-4-yl)methyl]amine (5 mM stock in 4:1 t-BuOH:DMSO) for 1 h at 37° C. in the dark. 10 μL of 2×Laemmli buffer (containing 5% β-mercaptoethanol) was added to the reactions and the tubes were heated at 95° C. for 10 mins. 15 μL of the protein samples were then resolved by 10% SDS-PAGE. The ladder was diluted 100-fold and 10 μL was loaded. Gels were destained for 30 mins using 40% methanol, 50% acetic acid, 10% water and visualized using Bio-Rad ChemiDoc MP Imaging System. Gels were stained for 20 mins in Coomassie blue and destained for 2 h prior to imaging.
Click Chemistry for MS/MS on Bacterial Lysate. Click reactions were performed on 100 μL scale. Lysates (normalized to 1.3 mg/mL) pretreated with 10 μM 7-N3 were incubated with 100 μM desthiobiotin-PEG4-alkyne (10 mM stock in DMSO), 1 mM CuBr (50 mM stock in DMSO), and 1 mM Tris[(1-benzyl-1H-1,2,3-triazol-4-yl)methyl]amine (50 mM stock in 4:1 t-BuOH:DMSO) for 1 h at 37° C. The samples were then processed for further analysis as per “Proteomic Analysis of Click-Tagged Proteins”.
Proteomic Analysis of Click-Tagged Proteins.

Series [1] concerns differentiated Caco-2 cells.
A further series concerns B. theta. Kind of series: Determination of IC50 of compound 7 in B. theta cultures.
Series [2] relates to three Gram negative and three Gram positive strains of human gut bacteria. Briefly: Growth (OD600) and cell viability (CFU/mL) of the six gut bacterial strains. The settings on record: 100 μM inhibitor.

Where “and” joins values, the source holds several entries; their conditions need not be identical. Identical values can stand only once. Entries after “also recorded” stand apart in the source; their conditions may differ. Like-named read-outs stand apart in the source and are kept apart here.

As usually defined, the IC50 is the point on the concentration scale where inhibition reaches its midpoint. On to `C[C@H](CCC(=O)CF)[C@H]1CC[C@H]2[C@@H]3[C@H](O)C[C@@H]4C[C@H](O)CC[C@]4(C)[C@H]3CC[C@]12C` [Compound 7], for which, in the series on B. vulgatus, the “% deconjugation of TCA” value is 0.68% and 0.64% and 0.47%; the “% deconjugation of TDCA” value is 0.90% and 0.17% and 0.81%; the “% deconjugation of TUDCA” value was 1.90% and 3.62% and 0.80%; the “% deconjugation of TβMCA” value was 1.58% and 0.41% and 0.65%. In the series with L. plantarum, the “% deconjugation of TCA” value was 0.77% and 0.93% and 1.02%; the “% deconjugation of TDCA” value is 3.22% and 0.62% and 0.64%; the “% deconjugation of TUDCA” value is 1.46% and 0.97% and 1.32%; the “% deconjugation of TβMCA” value was 0.15% and 0.49% and 0.62%. The “deconjugation of GUDCA in growing B. theta cultures (in words)” value in the series with B. theta cultures is listed as “nearly complete inhibition of deconjugation”. The “competition of 7 with 7-N3 for labeling of B. adolescentis BSH” value in the series with B. adolescentis BSH is reported as “dose-dependent labeling”. Further, the “epithelial monolayer integrity (passive diffusion of 4 kDa FITC-dextran)” value in series [1] is given as “did not compromise epithelial monolayer integrity”. The IC50 in the series on B. theta (Bacteroides thetaiotaomicron, 48 h, read-out: IC50 against B. theta (growing culture), 100 μM TUDCA, 48 h anaerobic growth) stood at 0.913 µM. The IC50 in the series with B. theta (read-out: IC50 against B. theta (growing culture), 100 μM TUDCA, 48 h anaerobic growth) is 1.07 µM. Besides, in series [2], the “effect on bacterial cell viability (CFU/mL, plated at 21 h)” value was “not bactericidal; also recorded: did not significantly affect the cell viability of the majority of the tested strains” and the “effect on bacterial growth (OD600 at 24 hours)” value was “did not significantly impact the growth”. In series [2] (listed as compound 7), the “effect on bacterial growth (OD600 at 24 hours)” value is recorded as “not bactericidal”.

The values are drawn from patent US12577273B2, “Small molecule modulators of gut bacterial bile acid metabolism” (priority 2019, dated 2026).
